Test results reported in patent publication US20140294942A1, “ANTIVIRAL PEPTIDES EFFECTIVE AGAINST HEPATITIS C VIRUS” (THE REGENTS OF THE UNIVERSITY OF CALIFORNIA, priority 2011, published 2014).
“Also recorded” adds a separate entry of the source. Where two headings read alike, the source gives them in different places. Bridge positions count the residues as written; N and C are the ends. Square brackets hold non-standard residues; d marks the D form. Peptide text beside a SMILES is read from it. Cha = N[C@@H](CC1CCCCC1)C(=O)O; Ahx = NCCCCCC(=O)O

What was measured:
replicon = details: reported in the literature, read-out: IC50 in Cell Culture; cited from earlier work
[1] = primer extension; reported in the literature; read-out: IC50 in in vitro Assays; cited from earlier work
[2] = system: NS5A-augmented IRES-mediated translation; experiment: Bicistronic HCV IRES reporter assay (Firefly/Renilla luciferase); format: cell-based, Hepatitis C virus; details: for effect of peptide treatment on NS5A-augmented IRES-mediated translation: cells treated with peptide and transfected with reporter construct and NS5A or GFP
Source text: FIG. 5A: Schematic of the bicistronic reporter construct used to measure IRESmediated translation. Firefly luciferase (FLuc) and Renilla luciferase (RLuc) are driven by HCV IRES and a 5′ cap, respectively. Each reporter has a stop codon to allow independent expression. Firefly to Renilla ratios are used to follow changes in levels of IRES-mediated translation. For all experiments, the IRES reporter, either NS5A or GFP, and a peptide construct (if indicated) were transfected into cells.
293T cells were transfected with HCV IRES reporter plasmid; either pMSCV5AFLAG or pMSCVGFP; and pCCL-CMV-IRES-EGFP plasmid expressing one of the following peptides: C34, NS5A domain II peptide, NS5A domain III peptide, NS3 peptide, or one of the C34 mutagenesis peptides. All transfections were done using Fugene 6 (Roche, 11814443001). 48 hours post transfection, Renilla and Firefly luciferase activity was determined using Dual Luciferase Assay System (Promega, E1910).
After identifying the C-terminal region of NS5A as the HSP70 binding site in vitro, we sought to determine whether this region has any functional significance. NS5A has been reported to increase IRES-mediated translation in a cell culture-based bicistronic reporter system (He et al. (2003) J. General Virol., 84: 535-543) (FIG. 5A). This reporter system consists of the Firefly luciferase open reading frame (ORF) driven by HCV IRES and Renilla luciferase ORF under the control of a 5′ cap (FIG. 5A). The ratio of Firefly to Renilla luciferase activity can be used to measure the levels of IRES-mediated translation. The C-terminal 34 amino acid peptide corresponding to amino acids 165-198 of NSSA domain I (hereafter referred to as C34) was tested for its effect on altering IRES-mediated translation. […]
We also assessed the impact of the HCV4 peptide on NS5A-augmented IRES-mediated translation. […]

[3] = system: HCV Renilla reporter virus
Method: (§1) Huh-7.5 cells were transfected with the indicated peptide construct and 48 hours later infected with the reporter virus for three hours. Cells were harvested 24 hours post infection, and Renilla activity was measured. All Renilla values were normalized to GFP transfection. […] Huh-7.5 cells were treated with the indicated concentrations of HCV4 or the arginine tag control peptide and immediately infected with the Renilla reporter virus for three hours. Cells were assayed 24 hours post infection for Renilla activity. ‘Percent protection’ refers to the percentage of decrease in Renilla levels compared with no peptide treatment.
pNRLFC was in vitro transcribed, and the purified RNA was electroporated into Huh-7.5 cells to generate infectious viral supernatant as previously described (Arumugaswami et al. (2008) PLoS Pathogens, 4: e1000182). Viral assays were done using the HCV reporter virus as described previously (Gonzalez et al. (2009) Hepatology50: 1756-1764).
(§2) Two cysteine residues were added to each end to allow for disulfide bond formation and to achieve a conformation similar to the C34 hairpin. Also an arginine tag was added to the N-terminal cysteine to allow for efficient uptake by cells without any transfection reagent. Huh-7.5 cells were treated with concentrations of HCV4 peptide ranging from 100 μM to 10 pM in the HCVcc system and were immediately infected with the HCV Renilla reporter virus.

Huh-7.5 cells = system: Huh-7.5 cells
Method: as §1
Cell viability was determined using MTT Cell Proliferation assay (ATCC, 30-1010K).
as §2

[4] = system: NS5A-augmented IRES-mediated translation; details: previously shown (Gonzalez et al. 2009); cited from earlier work
HCV = details: previously shown (Gonzalez et al. 2009); cited from earlier work
protease = protease (Hepatitis C virus genotype 1a, UniProt P27958); details: protease assay; reported in the literature; read-out: IC50 in in vitro Assays; cited from earlier work
Chain of protease (P27958 1027-1657 limits assumed): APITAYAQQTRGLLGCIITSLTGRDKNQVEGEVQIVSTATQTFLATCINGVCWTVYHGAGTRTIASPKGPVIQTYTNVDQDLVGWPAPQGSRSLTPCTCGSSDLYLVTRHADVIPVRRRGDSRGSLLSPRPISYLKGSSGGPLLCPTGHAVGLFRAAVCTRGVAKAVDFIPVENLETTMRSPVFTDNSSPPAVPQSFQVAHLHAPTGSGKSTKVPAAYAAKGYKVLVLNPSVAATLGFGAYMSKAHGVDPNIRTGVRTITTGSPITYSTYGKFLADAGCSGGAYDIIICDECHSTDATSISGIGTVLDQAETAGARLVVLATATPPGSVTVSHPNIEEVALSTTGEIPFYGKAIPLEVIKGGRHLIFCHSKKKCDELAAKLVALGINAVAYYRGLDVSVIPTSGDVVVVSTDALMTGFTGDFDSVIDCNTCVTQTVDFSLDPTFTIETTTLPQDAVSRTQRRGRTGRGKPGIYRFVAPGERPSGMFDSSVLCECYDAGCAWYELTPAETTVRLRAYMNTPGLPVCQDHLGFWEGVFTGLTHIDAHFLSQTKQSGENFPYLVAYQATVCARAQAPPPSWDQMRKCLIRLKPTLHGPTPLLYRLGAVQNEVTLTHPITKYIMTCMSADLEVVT
Chain of protease (P27958 1658-1711 partner limits assumed): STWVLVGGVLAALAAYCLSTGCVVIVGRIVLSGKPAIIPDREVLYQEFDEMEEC

polymerase = polymerase (Hepatitis C virus genotype 1a, UniProt P27958); details: polymerase assay; reported in the literature; read-out: IC50 in in vitro Assays; cited from earlier work
Chain of polymerase (P27958 2421-3011): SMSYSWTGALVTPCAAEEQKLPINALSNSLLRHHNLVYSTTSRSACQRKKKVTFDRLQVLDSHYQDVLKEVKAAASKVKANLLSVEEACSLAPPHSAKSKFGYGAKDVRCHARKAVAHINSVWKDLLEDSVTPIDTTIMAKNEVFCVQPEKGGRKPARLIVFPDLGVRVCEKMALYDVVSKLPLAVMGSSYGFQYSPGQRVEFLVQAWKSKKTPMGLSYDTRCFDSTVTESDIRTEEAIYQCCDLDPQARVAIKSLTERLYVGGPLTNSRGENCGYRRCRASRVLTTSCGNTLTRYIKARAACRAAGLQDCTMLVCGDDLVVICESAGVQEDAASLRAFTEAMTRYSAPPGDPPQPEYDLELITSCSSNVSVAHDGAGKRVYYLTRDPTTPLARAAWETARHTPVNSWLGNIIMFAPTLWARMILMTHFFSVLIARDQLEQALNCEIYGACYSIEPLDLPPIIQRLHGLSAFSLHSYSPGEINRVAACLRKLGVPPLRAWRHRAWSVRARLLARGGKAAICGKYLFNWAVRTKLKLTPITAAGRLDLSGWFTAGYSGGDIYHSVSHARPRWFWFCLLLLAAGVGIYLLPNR

In the case of `CC(C)(C)OC(=O)N[C@H]1CCCCC/C=C\[C@@H]2C[C@@]2(C(=O)NS(=O)(=O)C2CC2)NC(=O)[C@@H]2C[C@@H](OC(=O)N3Cc4cccc(F)c4C3)CN2C1=O` [ITMN-191, Da noprevir], the IC50 (replicon) is listed as 1.8 nM.
For `CC(C)C(=O)OC[C@H]1O[C@@H](n2ccc(N)nc2=O)[C@](C)(F)[C@@H]1OC(=O)C(C)C` [R7128 (PSI-6130)], the IC50 (replicon) is listed as 600 nM.
In the case of `CCc1cc(CC[C@]2(C3CCCC3)CC(O)=C(Cc3nc4nc(C)cc(C)n4n3)C(=O)O2)cc(CC)n1` [Filibuvir], the IC50 [1] is given as 50 nM.
With `CC(C)[C@@H]1NC(=O)[C@H](CCCNC(=N)N)NC(=O)[C@H](Cc2ccccc2)NC(=O)[C@H](CO)NC(=O)[C@@H](NC(=O)CCCCCNC(=O)CCCCCNC(=O)[C@H](CCCNC(=N)N)NC(=O)CCCCCNC(=O)[C@H](CCCNC(=N)N)NC(=O)CCCCCNC(=O)[C@H](CCCNC(=N)N)NC(=O)CCCCCNC(=O)[C@H](CCCNC(=N)N)NC(=O)CCCCCNC(=O)[C@H](CCCNC(=N)N)NC(=O)CCCCCNC(=O)[C@H](CCCNC(=N)N)NC(=O)CCCCCNC(=O)[C@@H](N)CCCNC(=N)N)CSSC[C@@H](C(N)=O)NC(=O)[C@@H]2CCCN2C(=O)[C@H](Cc2ccc(O)cc2)NC(=O)[C@H](CCC(=O)O)NC(=O)[C@H](Cc2c[nH]cn2)NC(=O)[C@H](CC2CCCCC2)NC(=O)[C@H]2CCCN2C1=O` [HCV4, Arg-(Ahx-Arg)6-Ahx-Ahx-Cys-Ser-Phe-Arg-Val-(D)Pro-Cha-His-Glu-Tyr-Pro-Cys] (H-R[Ahx]R[Ahx]R[Ahx]R[Ahx]R[Ahx]R[Ahx]R[Ahx][Ahx]CSFRV[dP][Cha]HEYPC-NH2; disulfide 16-27; N-terminus assumed) the “effect of peptide treatment on NS5A-augmented IRES-mediated translation” value [2] was “blocks”, the IC50 ([3]; read-out: IC50 in Cell Culture, reporter virus) was 0.542 nM and the IC50 ([3]; read-out: estimated IC50, intracellular viral protein production, Huh-7.5 cells treated with peptide 100 μM to 10 pM, immediately infected with HCV Renilla reporter virus, Renilla activity 24 hours post infection) was about 0.5 nM. For the same compound, the MTT toxicity (Huh-7.5 cells; 10 μM) was “slight toxicity”, the MTT toxicity (Huh-7.5 cells; 100 μM) was “toxicity” and the MTT toxicity (Huh-7.5 cells; any concentration lower than 10 μM) was “no cytotoxicity”.
For `O=c1c(O)c(-c2ccc(O)c(O)c2)oc2cc(O)cc(O)c12` [Quercetin], the “effect on NS5A-augmented IRES-mediated translation” value [4] is given as “blocked” and the “effect on virus production” value (HCV) is given as “blocked”.
For “LREEVSFRVGLHEYPVGSQLPCEP EPDVAVLTSM [C34]”, the “effect of expressed peptide on NS5A-augmented IRES-mediated translation” value ([2]; 293T cells transfected with IRES reporter, NS5A or GFP, and peptide construct, 48 hours post transfection) was “block; also recorded: suppresses” and the “cell viability by MTT on peptide expression” value (Huh-7.5 cells; expressed from construct, data not shown) was “no effect”.
For `CC[C@@H]1C[C@]1(NC(=O)[C@@H]1C[C@@H]2CN1C(=O)[C@H](C(C)(C)C)NC(=O)OCC(C)(C)CCCCc1cccc3c1CN(C3)C(=O)O2)C(=O)NS(=O)(=O)C1CC1` [MK-7009, Vaniprevir], the IC50 (replicon) is given as 5 to 15 nM.
In the case of `COc1ccc2c(O[C@@H]3C[C@H]4C(=O)N[C@]5(C(=O)NS(=O)(=O)C6CC6)C[C@H]5/C=C\CCCCN(C)C(=O)[C@@H]4C3)cc(-c3nc(C(C)C)cs3)nc2c1C` [TMC435], the IC50 (protease) is listed as 13 nM.
In the case of `C/C=C/C[C@@H](C)[C@@H](O)[C@H]1C(=O)N[C@@H](CC)C(=O)N(C)[C@H](SCCN(C)C)C(=O)N(C)[C@@H](CC(C)(C)O)C(=O)N[C@@H](C(C)C)C(=O)N(C)[C@@H](CC(C)C)C(=O)N[C@@H](C)C(=O)N[C@H](C)C(=O)N(C)[C@@H](CC(C)C)C(=O)N(C)[C@@H](CC(C)C)C(=O)N(C)[C@@H](C(C)C)C(=O)N1C` [SCY-635], the IC50 (replicon) is given as 140 nM.
For `Fc1ccccc1-c1nc2ccn(Cc3ccc(-c4ccc(C(F)(F)F)cc4C(F)(F)F)nn3)cc-2n1` [GS-9190, Tegobuvir], the IC50 (polymerase) is listed as over 71000 nM.
For “R-(Ahx-R)6—CONH2 [arginine tag control peptide, reference compound]”, the “effect of peptide treatment on NS5A-augmented IRES-mediated translation” value [2] was “fail to produce similar results” and the “effect on intracellular viral protein production” value ([3]; peptide added to Huh-7.5 cells without transfection reagent, immediately infected with Renilla reporter virus, assayed 24 hours post infection) was “did not show any effect”.
For `C=C[C@@H]1C[C@]1(NC(=O)[C@@H]1C[C@@H](Oc2cc(-c3csc(NC(=O)C(C)C)n3)nc3c(Br)c(OC)ccc23)CN1C(=O)[C@@H](NC(=O)OC1CCCC1)C(C)(C)C)C(=O)O` [Bl 201335], the IC50 (replicon) is given as 3.1 to 50 nM.
